# Assay results as given in publication PMC12300992, “A Machine Learning Platform for Isoform-Specific Identification and Profiling of Human Carbonic Anhydrase Inhibitors” (Pharmaceuticals, 2025).
# What was measured:
# hCA IX = hCA IX (Homo sapiens, UniProt Q16790); experiment: CO2 hydrase stopped-flow inhibition assay, hCA IX; conditions: for experimental activity class hCA IX: Table S2, Ki threshold of 1 µM
# Experimental: (§1) The ionic strength was maintained at a constant using 0.1 M Na2SO4 or NaClO4, as these anions are non-inhibitory at the concentration employed. […] Inhibitor stock solutions were prepared at a concentration of 10 mM in 1:1, v/v DMSO/water mixture and were subsequently diluted up to 0.01 nM in the assay buffer. To determine the inhibition constant (Ki), at least seven different inhibitor concentrations were tested. The enzyme and the inhibitor were pre-incubated for 15 min to allow the complete formation of the enzyme-inhibitor complex. Each inhibitor concentration was tested in triplicate, and the values reported throughout the study represent the mean of these replicates. […] These enzyme concentrations were measured by titration with ethoxzolamide and spectrophotometrically for CA I and II.
# hCA I = hCA I (Homo sapiens, UniProt P00915); experiment: CO2 hydrase stopped-flow inhibition assay, hCA I; conditions: for experimental activity class hCA I: Table S2, Ki threshold of 1 µM
# Experimental: as §1
# hCA II = hCA II (Homo sapiens, UniProt P00918); experiment: CO2 hydrase stopped-flow inhibition assay, hCA II; conditions: for experimental activity class hCA II: Table S2, Ki threshold of 1 µM
# Experimental: as §1
# hCA XII = hCA XII (Homo sapiens, UniProt O43570); experiment: CO2 hydrase stopped-flow inhibition assay, hCA XII; conditions: for experimental activity class hCA XII: Table S2, Ki threshold of 1 µM
# Experimental: as §1
# α-amylase = tested on: α-amylase; parameters: method as in PMID 26395057; conditions: cited from earlier work
# bacterial DNA gyrase B = tested on: bacterial DNA gyrase B; parameters: method as in PMID 20045642; conditions: cited from earlier work
# [1] = tested on: Z mutant (Glu342Lys) of α1-antitrypsin; parameters: method as in PMID 17918823; conditions: cited from earlier work
# Sequence of hCA I (P00915 whole entry): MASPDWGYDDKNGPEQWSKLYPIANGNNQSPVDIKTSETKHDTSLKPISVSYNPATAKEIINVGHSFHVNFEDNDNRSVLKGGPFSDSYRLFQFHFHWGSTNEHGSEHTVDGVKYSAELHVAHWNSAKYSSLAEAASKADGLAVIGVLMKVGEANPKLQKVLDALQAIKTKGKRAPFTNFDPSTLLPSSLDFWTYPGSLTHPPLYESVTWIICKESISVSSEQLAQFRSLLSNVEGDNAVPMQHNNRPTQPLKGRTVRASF
# Sequence of hCA XII (O43570 25-354): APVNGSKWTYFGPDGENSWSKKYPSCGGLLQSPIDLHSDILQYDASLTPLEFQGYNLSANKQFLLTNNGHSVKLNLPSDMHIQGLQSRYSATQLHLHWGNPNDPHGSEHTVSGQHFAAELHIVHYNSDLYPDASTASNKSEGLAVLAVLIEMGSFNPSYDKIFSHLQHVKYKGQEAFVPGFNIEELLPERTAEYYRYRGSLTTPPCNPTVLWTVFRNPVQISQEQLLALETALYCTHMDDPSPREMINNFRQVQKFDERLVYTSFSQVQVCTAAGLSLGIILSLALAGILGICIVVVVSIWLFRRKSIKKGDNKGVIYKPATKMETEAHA
Ki (hCA IX),experimental activity class hCA IX (hCA IX),Ki (hCA I),experimental activity class hCA I (hCA I),Ki (hCA II),experimental activity class hCA II (hCA II),Ki (hCA XII),experimental activity class hCA XII (hCA XII),selectivity for hCA II over hCA I (hCA II; hCA II vs hCA I),SMILES,inhibitory activity against α-amylase (α-amylase),bacterial DNA gyrase B inhibition (bacterial DNA gyrase B),effect on rate of polymerization of Z α1-antitrypsin [1]
> 100000 nM,Inactive,> 100000 nM,Inactive,> 100000 nM,Inactive,> 100000 nM,Inactive,,O=C(Nn1cnnc1)c1cccc(S(=O)(=O)Nc2cc(C(F)(F)F)ccc2Cl)c1 [Compound 3],,,
2520 nM,Inactive,36.2 nM,Active,6.8 nM,Active,603 nM,Active,approximately five times more active,NS(=O)(=O)c1ccc(OCCn2ccnc2)cc1 [Compound 4],,,
> 100000 nM,Inactive,31600 nM,Inactive,> 100000 nM,Inactive,> 100000 nM,Inactive,,O=S(=O)(Nc1cccc(C(F)(F)F)c1)c1cc(Cl)ccc1Cl [Compound 10],,,
73.7 nM,Active,666 nM,Active,16.4 nM,Active,49.4 nM,Active,,CCOc1ccccc1C(=O)Nc1nc2ccc(S(N)(=O)=O)cc2s1 [Compound 11],,,

# Second part, the compound before the results:
SMILES,Ki (hCA IX),experimental activity class hCA IX (hCA IX),Ki (hCA I),experimental activity class hCA I (hCA I),Ki (hCA II),experimental activity class hCA II (hCA II),Ki (hCA XII),experimental activity class hCA XII (hCA XII),selectivity for hCA II over hCA I (hCA II; hCA II vs hCA I),inhibitory activity against α-amylase (α-amylase),bacterial DNA gyrase B inhibition (bacterial DNA gyrase B),effect on rate of polymerization of Z α1-antitrypsin [1]
NS(=O)(=O)c1ccc(CCNC(=O)C/C=C2/NC(=O)c3c(sc4c3CCCC4)N2)cc1 [Compound 2],713 nM,Active,1020 nM,Inactive,11.6 nM,Active,30.6 nM,Active,,,,
NS(=O)(=O)c1ccc(Nc2nc(-c3ccc(O)cc3O)cs2)cc1 [Compound 12],313 nM,Active,1080 nM,Inactive,151 nM,Active,648 nM,Active,,promising inhibitory activity,inhibitor,reduce the rate of polymerization
